# Assay results reported in article PMC10263210, “Design, Synthesis and Biological Evaluation of Novel MDH Inhibitors Targeting Tumor Microenvironment” (Pharmaceuticals, 2023).
# Key:
# A549 lung cancer cells = assay: Cell growth inhibition assay (SRB), A549; format: cell-based; settings: Homo sapiens, means of three experiments, read-out: Cell Viability IC50 A549
# Protocol: (§1) At the same time, we investigated the effect of the compounds on the growth inhibition of A549 and H460 lung cancer cells bearing KRAS and LKB1 mutations. […] Compound 50 containing a piperidine linker was selected for further analysis.
# (§2) Human lung carcinoma A549 cells were cultured in Dulbecco’s modified Eagle’s medium and H460 cells were cultured in RPMI 1640 medium containing 10% fetal bovine serum and 1% penicillin/streptomycin at 37 °C with a 5% Co2 hypoxia experimental condition. The cells were grown in the hypoxia chamber (1% O2, 94% N2, and 5% Co2 in a multigas incubator)
# (§3) Cell growth inhibition was assessed using sulforhodamine B (SRB) as described in [34]. The cells were fixed with 10% formalin (Sigma-Aldrich) and stained with 0.4% SRB. Protein-bound dye was dissolved in 10 mM of Tris, and its optical density was measured at 540 nm.
# H460 lung cancer cells = assay: Cell growth inhibition assay (SRB), H460; format: cell-based; settings: Homo sapiens, NCI-H460, means of three experiments, read-out: Cell Viability IC50 H460
# Protocol: as §1, §2, §3
# human recombinant MDH1 = biological target: T1, human recombinant MDH1 (Homo sapiens, UniProt P40925); assay: MDH1 enzyme activity assay (oxaloacetate-dependent NADH oxidation); format: biochemical; settings: means of three experiments
# T1 construct: purchased BioVision
# T1 sequence (P40925 1-334): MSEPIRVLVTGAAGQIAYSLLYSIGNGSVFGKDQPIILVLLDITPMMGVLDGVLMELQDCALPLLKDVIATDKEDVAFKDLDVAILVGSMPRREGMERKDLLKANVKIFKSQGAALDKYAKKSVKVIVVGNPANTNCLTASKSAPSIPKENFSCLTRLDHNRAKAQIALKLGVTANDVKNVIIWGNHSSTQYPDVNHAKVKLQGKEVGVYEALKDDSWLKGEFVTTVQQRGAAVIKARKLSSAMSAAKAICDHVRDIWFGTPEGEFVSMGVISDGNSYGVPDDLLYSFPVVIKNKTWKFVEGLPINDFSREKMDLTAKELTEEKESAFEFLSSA
# Description: (§4) To develop the dual inhibitors of MDH1 and MDH2, we screened the newly synthesized LW1497 derivatives using MDH and MDH2 enzyme assays. LW1497 was used as the positive control for the MDH1/2 dual inhibitor. We evaluated the ability of the synthesized compounds to inhibit human recombinant MDH1 and MDH2 enzymatic activity using an oxaloacetate-dependent NADH oxidation assay (Table 1, Table 2, Table 3, Table 4, Table 5 and Table 6). Our SAR optimization strategy focused on four different parts of LW1497: (A) the introduction of various groups at different positions on the amide phenyl ring; (B) the replacement of the 3-(4-(2,4,4-trimethylpentan-2-yl) alkyl chain; (C) the alteration of the amide portion; and (D) the modification of the oxypropanamide linker portion (Figure 1).
# (§5) The activities of MDH1 and MDH2 were confirmed using an oxaloacetate-dependent NADH oxidation assay. Experiments were conducted using 100 mM of potassium phosphate buffer (pH 7.4) and human recombinant MDH1 (BioVision) and MDH2 (BioVision), and the results were obtained by measuring the absorbance at 340 nm. Enzyme activity was measured using a plate reader at a wavelength of 340 nm.
# human recombinant MDH2 = biological target: T2, human recombinant MDH2 (Homo sapiens, UniProt P40926); assay: MDH2 enzyme activity assay (oxaloacetate-dependent NADH oxidation); format: biochemical; settings: means of three experiments
# T2 construct: purchased BioVision
# T2 sequence (P40926 25-338): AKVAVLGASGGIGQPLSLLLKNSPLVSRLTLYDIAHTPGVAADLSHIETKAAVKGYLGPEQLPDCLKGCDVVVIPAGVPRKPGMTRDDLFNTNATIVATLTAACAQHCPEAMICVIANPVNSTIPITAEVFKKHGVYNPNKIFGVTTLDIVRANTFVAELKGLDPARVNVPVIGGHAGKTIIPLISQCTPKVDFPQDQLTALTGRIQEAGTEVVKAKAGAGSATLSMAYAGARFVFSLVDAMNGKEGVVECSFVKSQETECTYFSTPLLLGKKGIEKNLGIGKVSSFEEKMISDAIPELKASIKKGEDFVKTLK
# Description: as §4, §5
IC50 (A549 lung cancer cells),IC50 (H460 lung cancer cells),melting point,IC50 (human recombinant MDH1),IC50 (human recombinant MDH2),SMILES
11.1 ± 0.77 µM,8.83 ± 0.34 µM,97 to 99 °C,6.18 ± 0.74 µM,1.5 ± 0.01 µM,"COc1cccc(NC(=O)CCOc2ccc(C(C)(C)CC(C)(C)C)cc2)c1 [Compound 5a, N-(3-Methoxyphenyl)-3-(4-(2,4,4-trimethylpentan-2-yl)phenoxy)propanamide]"
6.47 ± 0.06 µM,5.68 ± 0.23 µM,88 to 90 °C,8.35 ± 2.86 µM,1.04 µM,"CC(C)(C)CC(C)(C)c1ccc(OCCC(=O)Nc2cccc(C(F)(F)F)c2)cc1 [Compound 5c, N-(3-(Trifluoromethyl)phenyl)-3-(4-(2,4,4-trimethylpentan-2-yl)phenoxy)propanamide]"
6.42 ± 0.06 µM,6.81 ± 0.04 µM,,0.94 ± 0.05 µM,1.24 ± 0.13 µM,"CC(C)(C)CC(C)(C)c1ccc(OCCC(=O)Nc2cccc(OC(F)(F)F)c2)cc1 [Compound 5d, N-(3-(Trifluoromethoxy)phenyl)-3-(4-(2,4,4-trimethylpentan-2-yl)phenoxy)propanamide]"
14.2 ± 0.2 µM,14.86 ± 0.07 µM,113 to 115 °C,1.61 ± 0.25 µM,> 5 µM,O=C(CCOc1ccc2ccc(Br)cc2c1)Nc1cccc(OC(F)(F)F)c1 [Compound 39b]
> 20 µM,,102 to 104 °C,2.25 ± 0.77 µM,18.3 ± 1.8 µM,"O=C(CCOc1ccc2cc(F)ccc2c1)Nc1cccc(OC(F)(F)F)c1 [Compound 39d, 3-((6-Fluoronaphthalen-2-yl)oxy)-N-(3-(trifluoromethoxy)phenyl)propanamide]"
6.06 ± 0.01 µM,5.3 ± 0.01 µM,,1.79 ± 0.04 µM,3.18 ± 0.18 µM,"CC(C)(C)CC(C)(C)c1ccc(NCCC(=O)Nc2cccc(OC(F)(F)F)c2)cc1 [Compound 56, N-(3-(Trifluoromethoxy)phenyl)-3-((4-(2,4,4-trimethylpentan-2-yl)phenyl)amino)propanamide]"
7.24 ± 0.11 µM,7.11 ± 0.03 µM,,2.16 ± 0.01 µM,1.18 ± 0.01 µM,"CC(C)(C)CC(C)(C)c1ccc(N(CCC(=O)Nc2cccc(OC(F)(F)F)c2)C2CCC2)cc1 [Compound 57c, 3-(Cyclobutyl(4-(2,4,4-trimethylpentan-2-yl)phenyl)amino)-N-(3-(trifluoromethoxy)phenyl)propanamide]"

# The next lines start with the compound.
SMILES,IC50 (A549 lung cancer cells),IC50 (H460 lung cancer cells),melting point,IC50 (human recombinant MDH1),IC50 (human recombinant MDH2)
"CC(C)(C)CC(C)(C)c1ccc(OCCC(=O)Nc2cccc(C#N)c2)cc1 [Compound 5b, N-(3-Cyanophenyl)-3-(4-(2,4,4-trimethylpentan-2-yl)phenoxy)propanamide]",5.25 ± 0.21 µM,5.84 ± 0.74 µM,112 to 114 °C,6.96 ± 0.12 µM,2 ± 0.05 µM
"CC(C)(C)CC(C)(C)c1ccc(OCCC(=O)Nc2ccccc2OC(F)(F)F)cc1 [Compound 5e, N-(2-(Trifluoromethoxy)phenyl)-3-(4-(2,4,4-trimethylpentan-2-yl)phenoxy)propanamide]",> 10 µM,> 10 µM,,3.14 ± 0.14 µM,3.09 ± 0.2 µM
"CC(C)(C)CC(C)(C)c1ccc(OCCC(=O)Nc2ccc(OC(F)(F)F)cc2)cc1 [Compound 5f, N-(4-(Trifluoromethoxy)phenyl)-3-(4-(2,4,4-trimethylpentan-2-yl)phenoxy)propanamide]",5.97 ± 0.71 µM,3.77 ± 0.02 µM,,3.45 ± 0.07 µM,2.12 ± 0.21 µM
CC(C)(C)CCc1ccc(OCCC(=O)Nc2cccc(OC(F)(F)F)c2)cc1 [Compound 14],14.44 ± 0.1 µM,12.8 ± 1.36 µM,,3.05 ± 0.29 µM,1.53 ± 0.08 µM
"CC(C)(C)CNc1ccc(OCCC(=O)Nc2cccc(OC(F)(F)F)c2)cc1 [Compound 21, 3-(4-(Neopentylamino)phenoxy)-N-(3-(trifluoromethoxy)phenyl)propanamide]",> 10 µM,> 10 µM,,> 5 µM,> 5 µM
"CN(CC(C)(C)C)c1ccc(OCCC(=O)Nc2cccc(OC(F)(F)F)c2)cc1 [Compound 22, 3-(4-(Methyl(neopentyl)amino)phenoxy)-N-(3-(trifluoromethoxy)phenyl)propanamide]",> 10 µM,> 10 µM,,> 5 µM,3.13 ± 0.29 µM
"CC(C)(O)CC(C)(C)c1ccc(OCCC(=O)Nc2cccc(OC(F)(F)F)c2)cc1 [Compound 30, 3-(4-(4-Hydroxy-2,4-dimethylpentan-2-yl)phenoxy)-N-(3-(trifluoromethoxy)phenyl)propanamide]",8.28 ± 0.76 µM,,,> 5 µM,> 5 µM
"O=C(CCOc1ccc(-c2ccccc2)cc1)Nc1cccc(OC(F)(F)F)c1 [Compound 35a, 3-([1,1′-Biphenyl]-4-yloxy)-N-(3-(trifluoromethoxy)phenyl)propanamide]",> 10 µM,> 10 µM,132 to 134 °C,0.78 ± 0.08 µM,1.38 ± 0.59 µM
"O=C(CCOc1ccc(-c2ccc(F)cc2)cc1)Nc1cccc(OC(F)(F)F)c1 [Compound 35b, 3-((4′-Fluoro-[1,1′-biphenyl]-4-yl)oxy)-N-(3-(trifluoromethoxy)phenyl)propanamide]",> 10 µM,> 10 µM,101 to 103 °C,> 5 µM,> 5 µM
"O=C(CCOc1ccc2ccccc2c1)Nc1cccc(OC(F)(F)F)c1 [Compound 39a, 3-(Naphthalen-2-yloxy)-N-(3-(trifluoromethoxy)phenyl)propanamide]",> 20 µM,> 20 µM,82 to 85 °C,> 5 µM,> 5 µM
"O=C(CCOc1ccc2cc(Br)ccc2c1)Nc1cccc(OC(F)(F)F)c1 [Compound 39c, 3-((6-Bromonaphthalen-2-yl)oxy)-N-(3-(trifluoromethoxy)phenyl)propanamide]",17.7 ± 0.18 µM,14.8 ± 0.18 µM,128 to 130 °C,1.61 ± 0.21 µM,> 5 µM
"CC(C)(C)CC(C)(C)c1ccc(OCCNC(=O)c2cccc(OC(F)(F)F)c2)cc1 [Compound 44a, 3-(Trifluoromethoxy)-N-(2-(4-(2,4,4-trimethylpentan-2-yl)phenoxy)ethyl)benzamide]",13.2 ± 1.3 µM,12.4 ± 0.21 µM,65 to 67 °C,3.15 ± 0.11 µM,2.22 ± 0.28 µM
"CC(C)(C)CC(C)(C)c1ccc(OCCNS(=O)(=O)c2cccc(OC(F)(F)F)c2)cc1 [Compound 44b, 3-(Trifluoromethoxy)-N-(2-(4-(2,4,4-trimethylpentan-2-yl)phenoxy)ethyl)benzenesulfonamide]",7.32 ± 0.02 µM,7.61 ± 0.24 µM,,,> 5 µM
"CC(C)(C)CC(C)(C)c1ccc(N2CCN(C(=O)c3cccc(OC(F)(F)F)c3)CC2)cc1 [Compound 51, (3-(Trifluoromethoxy)phenyl)(4-(4-(2,4,4-trimethylpentan-2-yl)phenyl)piperazin-1-yl)methanone]",> 20 µM,18.4 ± 1.55 µM,102 to 104 °C,5 ± 2.49 µM,> 5 µM
"CC(C)N(CCC(=O)Nc1cccc(OC(F)(F)F)c1)c1ccc(C(C)(C)CC(C)(C)C)cc1 [Compound 57b, 3-(Isopropyl(4-(2,4,4-trimethylpentan-2-yl)phenyl)amino)-N-(3-(trifluoromethoxy)phenyl)propanamide]",6.47 ± 0.06 µM,6.06 ± 0.06 µM,,1.61 ± 0.02 µM,1.09 ± 0.06 µM
"CC(=O)N(CCC(=O)Nc1cccc(OC(F)(F)F)c1)c1ccc(C(C)(C)CC(C)(C)C)cc1 [Compound 57d, N-(3-(Trifluoromethoxy)phenyl)-3-(N-(4-(2,4,4-trimethylpentan-2-yl)phenyl)acetamido)propanamide]",> 20 µM,> 20 µM,164 to 166 °C,1.41 ± 0.47 µM,> 5 µM
